What was measured:
[1] = diazepam combined with EMG biofeedback; chronic anxious patients; cited from earlier work
[2] = Evaluation of analgesics, alone or with the prototype Halo system, on a human subject with recurring headaches; format: in vivo; conditions: one subject
Protocol: The subject was a person in New York City with a history of recurring headaches. Tests were conducted in three stages between December 2016 and March 2017. In the first stage the subject used various over-the-counter analgesics at recommended dosages to manage headache symptoms (Sessions 1 and 2). Conditions were self-assessed prior to drug administration according to a standard headache scale, and then qualitatively reassessed for the extent of relief. In the second stage, the subject took an analgesic at the same time of using a prototype Halo™ system for 5 min (Session 3). In the third stage the subject used the prototype Halo™ system alone for a duration of 10 min on three occasions (Sessions 4-6).

For CN1C(=O)CN=C(c2ccccc2)c2cc(Cl)ccc21 [diazepam], the “Effect on muscular tension” value [1] is given as “effectively reduced muscular tension”.

For COc1ccc2cc([C@H](C)C(=O)O)ccc2c1 [naproxen], the Relief ([2]; analgesic taken at the same time as using prototype Halo system for 5 min, qualitative self-assessment) was “Complete”.

With CC(=O)Oc1ccccc1C(=O)O [aspirin] the Relief ([2]; over-the-counter analgesic alone at recommended dosage, qualitative self-assessment of headache relief) was “Moderate”.
